Measured values reported in PubChem BioAssay AID1963852 (Molecular Pharmacology Branch, DTP, NCI, 2024).

Test system: 282377-053-R-J1-PDC complex spheroid viability
Experiment: Anticancer human tumor 282377-053-R-J1-PDC patient-derived colon adenocarcinoma cell line growth inhibition [POLQ]
Details: for IC50: curve of first compound; for viability, T/C: stronger effect = lower value
Experimental: Multicellular complex tumor spheroid response to Polymerase (POL) inhibitors (novobiocin, ART-558, RP6685) in combination with a variety of drugs and investigational agents in selected tumor cell lines
The POL inhibitors (novobiocin, ART-558, and RP6685) were evaluated both individually and in combination with standard of care and investigational anticancer small molecules within a complex spheroid model of solid tumors. . Complex spheroids include a stromal component modeled by human endothelial cells (HUVEC) and fibroblasts modeled by human mesenchymal stem cells (MSCs). The concentration ranges selected for each drug and investigational agent were based upon clinically achievable concentrations if the clinical Cmax of the agent was known.
Compounds. The drugs and investigational agents: novobiocin (NSC847541), ART-558 (NSC835418), RP-6685 (NSC848927), peposertib (NSC802822), ceralasertib (NSC780249), elimusertib (NSC800525), camonsertib (NSC841442), AZD-1390 (NSC803789), olaparib (NSC753686), talazoparib (NSC767125), rucaparib (NSC756644), sotorasib (NSC818433), MRTX-1133 (NSC836407), SN-38 (NSC673596), topotecan (NSC609699), epotoside (NSC141540), doxorubicin (NSC123127), gemcitabine (NSC613327), 5-fluorouracil (NSC19893), paclitaxel (NSC125973), vemurafenib (NSC761431), MSA-2 (NSC828583), SN-011 (NSC837082), adavosertib (NSC754352), prexasertib (NSC758257), carboplatin (NSC241240) and oxaliplatin (NSC266046), were obtained from the National Cancer Institute (NCI) Developmental Therapeutics Program Chemical Repository (21). The FDA-approved anticancer drug set is available from the Developmental Therapeutics Program at https://dtp.cancer.gov/organization/dscb/obtaining/. […] The stock solutions were prepared in dimethyl sulfoxide (DMSO, Sigma-Aldrich, St. Louis, MO, cat. D2650), except for the platinum compounds which were prepared in saline (Quality Biological, Gaithersburg, MD, cat. 114-055-101), at 800-fold the tested concentration and stored at -70 degrees C prior to their use. All drugs and investigational agents were tested over a range starting from a high concentration at or near the clinical Cmax and decreasing in half-log increments. If the clinical Cmax for an agent had not been determined, the highest concentration tested was 10 microM, except for SN-38, which was tested at a high concentration of 1 microM.
Cell Culture. All cells were maintained in an incubator at 37 degrees C and 5% CO2 with 95% humidity. The PDC lines were cultured according to standard operating procedures established by the NCI PDMR (https://pdmr.cancer.gov). Table 3 of the manuscript, lists the cell lines along with the number of the three cell types plated to form the mct-spheroids and media for tumor cell growth. After thawing, all PDC lines, except 997537-175-T-J1-PDC and 415267-285-R-J2-PDC, were cultured in Matrigel-coated flasks prepared with a working solution of 1X Ham's F-12 nutrient mix, without supplementation (Thermo Fisher Scientific, cat. 11765054), 100 U/mL penicillin-streptomycin (Thermo Fisher Scientific, cat. 15140122), and 2.5% Matrigel (Corning Inc., Corning, NY, cat. 354248) for the first three passages. The two PDC lines 997537-175-T-J1-PDC and 415267-285-R-J2-PDC were cultured on uncoated flasks. The 857933-349-R-J2-PDC line was cultured in 6C/Colon 1B media containing advanced DMEM/F-12 (Thermo Fisher Scientific, cat. 12634028), 10 mM HEPES (Thermo Fisher Scientific, cat. 15630080), 1X GlutaMAX supplement (Thermo Fisher Scientific, cat. 35050061), 0.1 mg/mL primocin (InvivoGen, San Diego, CA, cat. ant-pm-2), 10% defined fetal bovine serum, heat inactivated (HyClone Laboratories Inc., Logan, UT, cat. SH30070.03HI), 50% L-WRN conditioned media (ATCC, cat. CRL-3276), 1.25 mM N-Acetyl-L-cysteine (Sigma-Aldrich, cat. A9165), 10 mM nicotinamide (Sigma-Aldrich, cat. N0636), 1X B-27 supplement (Thermo Fisher Scientific, cat. 17504044), 1X N-2 supplement (Thermo Fisher Scientific, cat. […]
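Further: spheroids exposed to compounds for seven days.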
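Wherever viability, T/C is given: 100% = DMSO vehicle control viability.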

Question: What does the source list for `C=CC(=O)N1CCN(c2nc(=O)n(-c3c(C)ccnc3C(C)C)c3nc(-c4c(O)cccc4F)c(F)cc23)C(C)C1` (configuration not stated) + COC1C(OC(N)=O)C(O)C(Oc2ccc3c(O)c(NC(=O)c4ccc(O)c(CC=C(C)C)c4)c(=O)oc3c2C)OC1(C)C?
Answer: IC50 (second compound 0.0316 µM): > 10 µM; IC50 (second compound 0.1 µM): > 10 µM; IC50 (second compound 0.316 µM): > 10 µM; IC50 (second compound 1 µM): > 10 µM; IC50 (second compound 3.16 µM): > 10 µM; IC50 (second compound 10 µM): > 10 µM; viability, T/C (second compound 0.0316 µM, first compound 0.0316 µM): 114%; viability, T/C (second compound 0.0316 µM, first compound 0.1 µM): 103%; viability, T/C (second compound 0.0316 µM, first compound 0.316 µM): 102%; viability, T/C (second compound 0.0316 µM, first compound 1 µM): 94.9%; viability, T/C (second compound 0.0316 µM, first compound 3.16 µM): 111%; viability, T/C (second compound 0.0316 µM, first compound 10 µM): 94.4%; viability, T/C (second compound 0.1 µM, first compound 0.0316 µM): 107%; viability, T/C (second compound 0.1 µM, first compound 0.1 µM): 116%; viability, T/C (second compound 0.1 µM, first compound 0.316 µM): 96.5%; viability, T/C (second compound 0.1 µM, first compound 1 µM): 115%; viability, T/C (second compound 0.1 µM, first compound 3.16 µM): 108%; viability, T/C (second compound 0.1 µM, first compound 10 µM): 102%; viability, T/C (second compound 0.316 µM, first compound 0.0316 µM): 105%; viability, T/C (second compound 0.316 µM, first compound 0.1 µM): 124%; viability, T/C (second compound 0.316 µM, first compound 0.316 µM): 113%; viability, T/C (second compound 0.316 µM, first compound 1 µM): 100%; viability, T/C (second compound 0.316 µM, first compound 3.16 µM): 113%; viability, T/C (second compound 0.316 µM, first compound 10 µM): 77%; viability, T/C (second compound 1 µM, first compound 0.0316 µM): 94.9%; viability, T/C (second compound 1 µM, first compound 0.1 µM): 114%; viability, T/C (second compound 1 µM, first compound 0.316 µM): 114%; viability, T/C (second compound 1 µM, first compound 1 µM): 98.1%; viability, T/C (second compound 1 µM, first compound 3.16 µM): 89.6%; viability, T/C (second compound 1 µM, first compound 10 µM): 85.4%; viability, T/C (second compound 3.16 µM, first compound 0.0316 µM): 115%; viability, T/C (second compound 3.16 µM, first compound 0.1 µM): 113%; viability, T/C (second compound 3.16 µM, first compound 0.316 µM): 102%; viability, T/C (second compound 3.16 µM, first compound 1 µM): 90.1%; viability, T/C (second compound 3.16 µM, first compound 3.16 µM): 95.2%; viability, T/C (second compound 3.16 µM, first compound 10 µM): 90.5%; viability, T/C (second compound 10 µM, first compound 0.0316 µM): 106%; viability, T/C (second compound 10 µM, first compound 0.1 µM): 109%; viability, T/C (second compound 10 µM, first compound 0.316 µM): 105%; viability, T/C (second compound 10 µM, first compound 1 µM): 114%; viability, T/C (second compound 10 µM, first compound 3.16 µM): 112%; viability, T/C (second compound 10 µM, first compound 10 µM): 111%
